Assay results from US8912200B2, “Alkynyl substituted pyrimidinyl-pyrroles active as kinases inhibitors” (Nerviano Medical Sciences S.R.L., priority 2011, dated 2014).

Columns and labels:
[1] = test system: JAK2 dependent human megakaryoblastic leukemia cell line SET-2; assay: Cell proliferation assay (CellTiter-Glo, 72 hours); type: cell-based; settings: Homo sapiens, SET-2 cells
Experimental: The JAK2 dependent human megakaryoblastic leukemia cell line SET-2 (DSMZ, Braunschweig GERMANY) and the JAK2 independent human chronic myelogenous leukaemia cell line K562 (ECACC, Wiltshire, UK) were cultured in RPMI-1640 medium-Glutamax (Gibco BRL, Gaithesburg, Md., USA), supplemented with 10% fetal bovine serum (FBS) at 37° C. and 5% CO2.
Cell Proliferation Assay:
Approximately 5×10^3 cells were plated into 384 microtiter plate wells in 50 μL of growth media with different concentrations of inhibitors. The cells were incubated at 37° C. and 5% CO2 for 72 hours, then the plates were processed using CellTiter-Glo assay (Promega, Madison, Wis., USA) following the manufacturer's instruction. Briefly 25 μL/well reagent solution is added to each well and after 5 minutes shaking the micro-plates are read by Envision luminometer (PerkinElmer, Waltham, Mass., USA).
Data are analyzed by Symix Assay Explorer software (Symix Technologies Inc.) that provides sigmoidal fitting algorithm of the 8 points dilutions curves for IC50 determination.

Lyn full length = biological target: T1, Lyn full length (Homo sapiens, UniProt P07948); assay: Biochemical assay for inhibitors of Lyn (Src family) kinase activity; settings: Lyn full length 1 nM, 25 μM ATP
T1 construct: The assay has been performed using Lyn full length
T1 sequence (P07948 whole entry): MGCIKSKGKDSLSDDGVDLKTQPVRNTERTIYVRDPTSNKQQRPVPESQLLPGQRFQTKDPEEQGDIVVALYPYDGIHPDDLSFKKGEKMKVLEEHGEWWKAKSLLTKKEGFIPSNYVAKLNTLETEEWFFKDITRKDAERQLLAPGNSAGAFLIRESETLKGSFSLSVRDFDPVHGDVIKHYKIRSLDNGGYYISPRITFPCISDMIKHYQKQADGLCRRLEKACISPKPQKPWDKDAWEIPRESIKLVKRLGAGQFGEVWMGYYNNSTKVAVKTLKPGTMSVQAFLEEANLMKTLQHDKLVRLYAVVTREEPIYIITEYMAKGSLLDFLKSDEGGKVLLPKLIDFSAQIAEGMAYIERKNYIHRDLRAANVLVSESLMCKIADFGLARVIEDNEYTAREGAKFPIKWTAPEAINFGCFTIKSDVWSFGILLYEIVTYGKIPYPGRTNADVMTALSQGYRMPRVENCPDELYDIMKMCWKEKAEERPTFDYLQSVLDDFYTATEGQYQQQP
Source text: Biochemical Assay for Inhibitors of Lck and Lyn (Src Family) Kinases Activity
(§1) Specific Lck and Lyn substrates are trans-phosphorylated by Lck and Lyn kinases in the presence of ATP traced with 33P-γ-ATP. At the end of the phosphorylation reaction, the unreacted ATP, cold and radioactive, is captured by an excess of dowex ion exchange resin that eventually settles by gravity to the bottom of the reaction plate. The supernatant is subsequently withdrawn and transferred into a counting plate that is then evaluated by β-counting.
Lyn Specific Assay Conditions
The assay has been performed using Lyn full length (accession number P07948 of UniProtKB/Swiss-Prot database).
Kinase buffer was composed of 50 mM HEPES pH 7.5 containing 3 mM MgCl2, 1 mM DTT, 3 μM Na3VO4, and 0.2 mg/mL BSA.
The Lyn kinase assay was run with a final enzyme concentration of 1 nM, in the presence of 25 μM ATP, 1.5 nM 33P-γ-ATP and 250 μM of substrate ABI 1 (Aminoacid sequence: EAIYAAPFAKKK—SEQ ID NO: 3). The peptidic substrate was purchased from American Peptide Company (Sunnyvale, Calif.).
(§2) For IC50 determination, test compounds are received as a 1 mM solution in 100% DMSO, distributed into 96 well plates: compounds are then plated into the first column of a microtiter plate (A1 to G1), 100 μL/well.
(§3) An automated station for serial dilutions (Biomek FX, Beckman) is used for producing 1:3 dilutions in 100% DMSO, from line A1 to A10, and for all the compounds in the column. Moreover, 4-5 copies of daughter plates are prepared by reformatting 5 μL of this first set of 100% DMSO dilution plates into 384 deep well-plates: one of these plates with the serial dilutions of test compounds will be thawed the day of the experiments, reconstituted at a 3× concentration with water and used in the IC50 determination assays. In a standard experiment, the highest concentration (3×) of all compounds is 30 μM, while the lowest one is 1.5 nM. Each 384 well-plate will contain at least one curve of the standard inhibitor staurosporine and reference wells (total enzyme activity vs. no enzymatic activity) for the Z′ and signal to background evaluation.
(§4) 384-well plates, V bottom (test plates) are prepared with 5 μL of the compound dilution (3×) and then placed onto a PlateTrak 12 robotized station (Perkin Elmer; the robot has one 384-tip pipetting head for starting the assay plus one 96-tip head for dispensing the resin) together with one reservoir for the Enzyme mix (3×) and one for the ATP mix (3×). At the start of the run, the robot aspirates 5 μL of ATP mix, makes an air gap inside the tips (3 μl) and aspirates 5 μL of JAK2 mix. The following dispensation into the plates plus 3 cycles of mixing, done by the robot itself, starts the kinase reaction. At this point, the correct concentrations are restored for all the reagents. The robot incubates the plates for 60 minutes at room temperature, and then stops the reaction by pipetting 60 μL of dowex resin suspension into the reaction mix. In order to avoid tip clogging, wide bore tips are used to dispense the resin suspension. Three cycles of mixing are done immediately after the addition of the resin. Another mixing cycle is performed after all the plates are stopped, this time using normal tips: the plates are then allowed to rest for about one hour in order to allow resin sedimentation. At this point, 27 μL of the supernatant are transferred into 384-Optiplates (Perkin-Elmer), with 50 μL of Microscint 40 (Perkin-Elmer); after 5 min of orbital shaking the plates are read on a Perkin-Elmer Top Count radioactivity counter.
Data are analyzed by an internally customized version of the SW package “Assay Explorer” that provides sigmoidal fitting of the ten-dilutions curves for IC50 determination in the secondary assays/hit confirmation routines.

JAK2 kinase domain = biological target: T2, JAK2 kinase domain (Homo sapiens, UniProt O60674); assay: Biochemical assay for inhibitors of JAK kinase activity (JAK2, 33P-γ-ATP/dowex resin); settings: JAK2 kinase domain 1 nM, 60 μM ATP
T2 construct: commercially available JAK2 kinase domain; purchased Invitrogen, Eugene, Oreg
T2 sequence (O60674 849-1124 limits assumed): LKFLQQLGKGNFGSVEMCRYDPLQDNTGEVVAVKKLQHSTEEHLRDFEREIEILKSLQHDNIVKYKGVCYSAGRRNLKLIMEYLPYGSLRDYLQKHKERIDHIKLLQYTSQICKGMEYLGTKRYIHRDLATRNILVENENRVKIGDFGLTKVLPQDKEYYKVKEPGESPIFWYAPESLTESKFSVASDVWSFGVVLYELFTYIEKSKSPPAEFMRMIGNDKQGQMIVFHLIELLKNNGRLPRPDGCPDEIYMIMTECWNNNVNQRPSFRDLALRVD
Source text: Biochemical Assay for Inhibitors of JAK Kinase Activity
as §1, with “Specific JAK2, JAK1 or JAK3 peptide” for “Specific Lck and Lyn”, “by JAK” for “by Lck and Lyn”
500 g of wet resin (SIGMA, custom prepared resin DOWEX 1×8 200-400 mesh, 2.5 Kg) are weighed out and diluted 2 to 1 in 150 mM sodium formate, pH 3.00. The resin is allowed to settle down overnight and then the supernatant is discarded. After three washes as above over a couple of days, the resin is allowed to settle and two volumes (with respect to the resin volume) of 150 mM sodium formate buffer are added.
Kinase buffer was composed of 50 mM HEPES pH 7.5 containing 10 mM MgCl2, 2.5 mM DTT, 10 μM Na3VO4 and 0.2 mg/mL BSA.
JAK2 Specific Assay Conditions
The JAK2 kinase assay was run with a final enzyme concentration of 1 nM, in the presence of 60 μM ATP, 3 nM 33P-γ-ATP and 64 μM of substrate BioDBn*306 (Aminoacid sequence: LPLDKDYYVVREPGQ—SEQ ID NO: 1). The peptidic substrate was purchased from American Peptide Company (Sunnyvale, Calif.).
as §2, §3
as §4, with “counter. […]” for “counter.”

SMILES | IC50 [1] | IC50 (Lyn full length) | IC50 (JAK2 kinase domain)
Cc1ccc(Cl)cc1-c1[nH]c(-c2ccnc(N)n2)c(C#Cc2ccc(OC3CCN(C)CC3)cc2)c1C(N)=O [compound 92, 5-(2-Aminopyrimidin-4-yl)-2-(5-chloro-2-methylphenyl)-4-({4-[(1-methylpiperidin-4-yl)oxy]phenyl}ethynyl)-1H-pyrrole-3-carboxamide] | 220 nM | 39 nM | 5 nM
Cc1ccc(Cl)cc1-c1[nH]c(-c2ccnc(N)n2)c(C#Cc2ccccc2)c1C(N)=O [compound 69, 5-(2-Amino-pyrimidin-4-yl)-2-(5-chloro-2-methyl-phenyl)-4-phenylethynyl-1H-pyrrole-3-carboxamide] | 1450 nM | 20 nM | 8 nM
COc1cc(N2CCN(C)CC2)ccc1C#Cc1cnc(N)nc1-c1cc(C(N)=O)c(-c2cc(Cl)ccc2C)[nH]1 [compound 46, 5-(2-Amino-5-{[2-methoxy-4-(4-methylpiperazin-1-yl)phenyl]ethynyl}pyrimidin-4-yl)-2-(5-chloro-2-methylphenyl)-1H-pyrrole-3-carboxamide] | 290 nM | 18 nM | 6 nM
Cc1ccc(Cl)cc1-c1[nH]c(-c2ccnc(N)n2)c(C#Cc2ccccc2NCCN(C)C)c1C(N)=O [compound 87, 5-(2-Aminopyrimidin-4-yl)-2-(5-chloro-2-methylphenyl)-4-[(2-{[2-(dimethylamino)ethyl]amino}phenyl)ethynyl]-1H-pyrrole-3-carboxamide] | 290 nM | 24 nM | 13 nM
Cc1ccc(Cl)cc1-c1[nH]c(-c2nc(N)ncc2C#Cc2ccc(N3CCN(C)CC3)cc2)cc1C(N)=O [compound 11, 5-(2-Amino-5-{[4-(4-methylpiperazin-1-yl)phenyl]ethynyl}pyrimidin-4-yl)-2-(5-chloro-2-methylphenyl)-1H-pyrrole-3-carboxamide] | 90 nM | 8 nM | 4 nM
Cc1ccc(Cl)cc1-c1[nH]c(-c2ccnc(N)n2)c(C#Cc2ccccc2NC2CCN(C)CC2)c1C(N)=O [compound 94, 5-(2-Aminopyrimidin-4-yl)-2-(5-chloro-2-methylphenyl)-4-({2-[(1-methylpiperidin-4-yl)amino]phenyl}ethynyl)-1H-pyrrole-3-carboxamide] | 290 nM | 661 nM | 32 nM
COc1ccc(NC2CCN(C)CC2)cc1C#Cc1cnc(N)nc1-c1cc(C(N)=O)c(-c2cc(Cl)ccc2C)[nH]1 [compound 22, 5-[2-Amino-5-({2-methoxy-5-[(1-methylpiperidin-4-yl)amino]phenyl}ethynyl)pyrimidin-4-yl]-2-(5-chloro-2-methylphenyl)-1H-pyrrole-3-carboxamide] | 430 nM | 9 nM | 2 nM
Cc1ccc(Cl)cc1-c1[nH]c(-c2nc(N)ncc2C#Cc2cc(N3CCN(C)CC3)ccc2F)cc1C(N)=O [compound 49, 5-(2-Amino-5-{[2-fluoro-5-(4-methylpiperazin-1-yl)phenyl]ethynyl}pyrimidin-4-yl)-2-(5-chloro-2-methylphenyl)-1H-pyrrole-3-carboxamide] | 140 nM | 20 nM | 5 nM
Cc1ccc(Cl)cc1-c1[nH]c(-c2ccnc(N)n2)c(C#Cc2cccc(NCCN)c2)c1C(N)=O [compound 82, 4-({3-[(2-Aminoethyl)amino]phenyl}ethynyl)-5-(2-aminopyrimidin-4-yl)-2-(5-chloro-2-methylphenyl)-1H-pyrrole-3-carboxamide] | 290 nM | 11 nM | 7 nM
Cc1ccc(Cl)cc1-c1[nH]c(-c2nc(N)ncc2C#Cc2cccc(NC3CCOCC3)c2)cc1C(N)=O [compound 13, 5-(2-Amino-5-{[3-(tetrahydro-2H-pyran-4-ylamino)phenyl]ethynyl}pyrimidin-4-yl)-2-(5-chloro-2-methylphenyl)-1H-pyrrole-3-carboxamide] |  | 8 nM | 4 nM
Cc1ccc(Cl)cc1-c1[nH]c(-c2nc(N)ncc2C#CC(C)(C)O)cc1C(N)=O [compound 54, 5-[2-Amino-5-(3-hydroxy-3-methylbut-1-yn-1-yl)pyrimidin-4-yl]-2-(5-chloro-2-methylphenyl)-1H-pyrrole-3-carboxamide] | 780 nM |  | 16 nM
Cc1ccc(Cl)cc1-c1[nH]c(-c2nc(N)ncc2C#CC2CC2)cc1C(N)=O [compound 38, 5-[2-Amino-5-(cyclopropylethynyl)pyrimidin-4-yl]-2-(5-chloro-2-methylphenyl)-1H-pyrrole-3-carboxamide] | 570 nM |  | 2 nM
Cc1ccc(Cl)cc1-c1[nH]c(-c2nc(N)ncc2C#Cc2cccc(NC3CCN(C)CC3)c2)cc1C(N)=O [compound 12, 5-[2-Amino-5-({3-[(1-methylpiperidin-4-yl)amino]phenyl}ethynyl)pyrimidin-4-yl]-2-(5-chloro-2-methylphenyl)-1H-pyrrole-3-carboxamide] | 500 nM |  | 1 nM
